Reference: ChEMBL document CHEMBL5154636, “Discovery of STAT3 and Histone Deacetylase (HDAC) Dual-Pathway Inhibitors for the Treatment of Solid Cancer” (J Med Chem, 2021)

Key:
HCT-116 = experiment: Cytotoxicity against human HCT-116 cells assessed as reduction in cell viability incubated for 48 hrs by MTT assay; format: functional, cell-based; settings: HCT-116, 48 h
MDA-MB-231 = experiment: Cytotoxicity against human MDA-MB-231 cells assessed as reduction in cell viability incubated for 48 hrs by MTT assay; format: functional, cell-based; settings: MDA-MB-231, 48 h
L02 = experiment: Cytotoxicity against human L02 cells assessed as reduction in cell viability at 32 uM incubated for 48 hrs by MTT assay relative to control; format: toxicity, cell-based; settings: l02, 48 h
MCF-10A = experiment: Cytotoxicity against human MCF-10 A cells assessed as reduction in cell viability at 32 uM incubated for 48 hrs by MTT assay relative to control; format: toxicity, cell-based
[1] = Acute toxicity in po dosed ICR mouse assessed as maximum tolerated dose measured after 7 days; format: organism-based; settings: in vivo, time 7 day

Compound	IC50 (HCT-116) [µM]	IC50 (MDA-MB-231) [µM]	Activity (L02)	Activity (MCF-10A)	MTD at 168 h [1] [mg/kg]
COc1cc(/C=C/c2ccc(OCCCCCCCC(=O)NO)cc2)cc(OC)c1	12.6	5.05			
COc1cc(/C=C/c2ccc(OCCc3cn(CC(=O)NO)nn3)cc2)cc(OC)c1	7.44	6.52			
COc1cc(/C=C/c2ccc(OCCCC(=O)NO)cc2)cc(OC)c1	5.2	3.89			
COc1cc(/C=C/c2ccc(OCc3cccc(C(=O)NO)c3)cc2)cc(OC)c1	13.7	9.22			
COc1cc(/C=C/c2ccc(OCc3ccccc3C(=O)NO)cc2)cc(OC)c1	13.9	7.18			
COc1cc(/C=C/c2ccc(OCCCCC(=O)NO)cc2)cc(OC)c1	3.35	4.21			
O=C(CCCCCCC(=O)Nc1ccccc1)NO [VORINOSTAT]			26%	24%	> 400
COc1cc(/C=C/c2ccc(OCCN3CCN(CC(=O)NO)CC3)cc2)cc(OC)c1	8.87	7.42			
COc1cc(/C=C/c2ccc(NCc3ccc(/C=C/C(=O)NO)cc3)cc2)cc(OC)c1	11.2	5.95			
COc1cc(/C=C/c2ccc(OCCCCCC(=O)NO)cc2)cc(OC)c1	4.1	3.56			
COc1cc(/C=C/c2ccc(O)cc2)cc(OC)c1 [PTEROSTILBENE]	34.1	31.2	Non-Toxic	Non-Toxic	> 400
COc1cc(/C=C/c2ccc(OCc3ccc(C(=O)NO)cc3)cc2)cc(OC)c1	10.4	6.88			
